System: Cochliobolus miyabeanus
Experiment: Activity against brown spot of rice caused by Cochliobolus miyabeanus, protective application
Assay type: in vivo
Conditions: individual active compound, evaluated after 6 days
Method: The active compounds, separately or jointly, were prepared as a stock solution comprising 0.25% by weight of active compound in acetone or DMSO. 1% by weight of the emulsifier Uniperol® EL (wetting agent having emulsifying and dispersing action based on ethoxylated alkylphenols) was added to this solution, and the mixture was appropriately diluted with water to the desired concentration.
Use example—Activity against brown spot of rice caused by Cochliobolus miyabeanus, protective application Leaves of rice seedlings of the cultivar “Tai-Nong 67” which had been grown in pots were sprayed to runoff point with an aqueous suspension having the concentration of active compound stated below. The next day, the plants were inoculated with an aqueous spore suspension of Cochliobolus miyabeanus. The test plants were then placed in climatized chambers at 22-24° C. and 95-99% relative atmospheric humidity for 6 days. The extent of the development of infection on the leaves was then determined visually.
The visually determined values for the percentage of infected leaf area were converted into efficacies as a % of the untreated control:
The efficacy (E) is calculated as follows using Abbot's formula: E=(1−α/β)·100 α corresponds to the fungal infection of the treated plants in % and β corresponds to the fungal infection of the untreated (control) plants in % An efficacy of 0 means that the infection level of the treated plants corresponds to that of the untreated control plants; an efficacy of 100 means that the treated plants are not infected.
The expected efficacies of the mixtures of active compounds were determined using Colby's formula [R. S. Colby, “Calculating synergistic and antagonistic responses of herbicide combinations”, Weeds, 15, 20-22 (1967)] and are compared with the observed efficacies.
Colby's formula: E=x+y−x·y/100
E expected efficacy, expressed in % of the untreated control, when using the mixture of the active compounds A and B at the concentrations a and b x efficacy, expressed in % of the untreated control, when using active compound A at the concentration a y efficacy, expressed in % of the untreated control, when using active compound B at the concentration b

Row | Compound | Efficacy in % of the untreated control (3.1 ppm in the spray liquor) | Efficacy in % of the untreated control (6.25 ppm in the spray liquor) | Efficacy in % of the untreated control (12.4 ppm in the spray liquor)
1 | CC1CCN(c2c(-c3c(F)cc(F)cc3F)c(Cl)nc3ncnn23)CC1 [I, 5-chloro-7-(4-methylpiperidin-1-yl)-6-(2,4,6-trifluorophenyl)[1,2,4]tri-azolo[1,5-a]pyrimidine] | 22% | 56% | 
2 | CC12CC1(C)C(=O)N(c1cc(Cl)cc(Cl)c1)C2=O (stereo not shown) [II (procymidone), 3-(3,5-dichlorophenyl)-1,5-dimethyl-3-aza-bicyclo[3.1.0]hexane-2,4-dione] |  | 22% | 44%
